# From ChEMBL document CHEMBL5608222, “Development of 3'-Deoxy-3',4'-didehydro-nucleoside Prodrug Inhibitors of West Nile and Zika Viruses” (ACS Med Chem Lett, 2024)
# Calls of active or inactive are those of the source. The calls are words filed in the database; no cut-off is given here.
# Experiments:
# [1] = test system: Zika virus; assay: Antiviral activity against ZIKV infected in Huh-7 cells assessed as reduction in viral titer at 0.1 to 1 mM preincubated for 24 hrs prior to compound washout followed by viral infection for 1 hr again media washout and compound addition for 3 days by neutral red staining based assay; format: functional; conditions: dose 0.1-1 mM
# [2] = test system: Huh-7; assay: Cytotoxicity against human Huh-7 cells at 0.1 to 1 mM incubated for 6 days by neutral red staining based assay; format: toxicity, cell-based; conditions: huh-7, 144 h, 1000 µM, dose 0.1-1 mM, time 6 day
# [3] = Cytotoxicity against african green monkey Vero cells assessed as decrease in cell viability at 0.1 to 1 mM incubated for 5 days by Alamar blue assay; format: toxicity, cell-based; conditions: chlorocebus sabaeus, 120 h, 1000 µM, dose 0.1-1 mM, time 5 day
# [4] = test system: West Nile virus; assay: Antiviral activity against WNV infected in Huh-7 cells assessed as log reduction in viral titer at 0.1 to 1 mM preincubated for 24 hrs prior to compound washout followed by viral infection for 1 hr again media washout and compound addition for 3 days by neutral red staining based assay; format: functional; conditions: dose 0.1-1 mM; for Activity: time 96.0 hrs
# [5] = test system: Huh-7; assay: Cytotoxicity against human Huh-7 cells assessed as decrease in cell viability at 0.1 to 1 mM incubated for 5 days by Alamar blue assay; format: toxicity, cell-based; conditions: huh-7, 120 h, 1000 µM, dose 0.1-1 mM, time 5 day
# [6] = test system: Zika virus; assay: Antiviral activity against ZIKV infected in Huh-7 cells assessed as log reduction in viral titer at 0.1 mM preincubated for 24 hrs prior to compound washout followed by viral infection for 1 hr again media washout and compound addition for 3 days by neutral red staining based assay; format: functional; conditions: for Activity: time 96.0 hrs
# [7] = Cytotoxicity against african green monkey Vero cells assessed as decrease in cell viability at 1 mM incubated for 5 days by Alamar blue assay; format: toxicity, cell-based; conditions: chlorocebus sabaeus, 120 h, 1000 µM, time 5 day
# [8] = test system: Zika virus; assay: Antiviral activity against ZIKV infected in Huh-7 cells assessed as log reduction in viral titer at 1 mM preincubated for 24 hrs prior to compound washout followed by viral infection for 1 hr again media washout and compound addition for 3 days by neutral red staining based assay; format: functional
# [9] = test system: Huh-7; assay: Cytotoxicity against human Huh-7 cells assessed as decrease in cell viability at 1 mM incubated for 5 days by Alamar blue assay; format: toxicity, cell-based; conditions: huh-7, 120 h, 1000 µM, time 5 day
# [10] = test system: West Nile virus; assay: Antiviral activity against WNV infected in Huh-7 cells assessed as log reduction in viral titer at 0.1 mM preincubated for 24 hrs prior to compound washout followed by viral infection for 1 hr again media washout and compound addition for 3 days by neutral red staining based assay; format: functional; conditions: time 96 hrs
# [11] = Cytotoxicity against human Huh-7 cells assessed as cell viability at 1 mM incubated for 6 days by neutral red staining based assay; format: toxicity; conditions: time 6 day, read-out: Activity
# [12] = test system: West Nile virus; assay: Antiviral activity against WNV infected in Huh-7 cells assessed as log reduction in viral titer at 1 mM preincubated for 24 hrs prior to compound washout followed by viral infection for 1 hr again media washout and compound addition for 3 days by neutral red staining based assay; format: functional, organism-based; conditions: time 96.0 hrs
# [13] = test system: Huh-7; assay: Cytotoxicity against human Huh-7 cells at 1 mM; format: toxicity, cell-based; conditions: huh-7, 120 h, 1000 µM, time 5 day
# [14] = Cytotoxicity against african green monkey Vero cells assessed as decrease in cell viability at 0.1 to 1 mM incubated for 2 days by Alamar blue assay; format: toxicity, cell-based; conditions: chlorocebus sabaeus, 48 h, 1000 µM, dose 0.1-1 mM, time 2 day
SMILES,Activity [2],Activity [3],Activity [4],Activity [5],Activity [7],Activity [9] [%],also measured
CC(C)OC(=O)[C@H](C)N[P@](=O)(OCC1=C[C@@H](O)[C@H](n2cnc3c(=O)[nH]cnc32)O1)Oc1ccccc1,Non-Toxic,Non-Toxic,inactive,Non-Toxic,,,Activity ([1]; time 96.0 hrs): inactive
Cc1cn([C@@H]2OC(CO)=C[C@H]2O)c(=O)[nH]c1=O,Non-Toxic,Non-Toxic,inactive,Non-Toxic,,,
O=c1ccn([C@@H]2OC(CO)=C[C@H]2O)c(=O)[nH]1,Non-Toxic,Non-Toxic,inactive,Non-Toxic,,,
CC(C)OC(=O)[C@H](C)N[P@](=O)(OCC1=C[C@@H](O)[C@H](n2ccc(=O)[nH]c2=O)O1)Oc1ccccc1,Non-Toxic,,inactive,,Non-Toxic,70,log(activity) ([6]; time 96 hrs): 2.5; Activity ([8]; time 96.0 hrs): inactive
Nc1nc2c(ncn2[C@@H]2OC(CO)=C[C@H]2O)c(=O)[nH]1,Non-Toxic,Non-Toxic,inactive,Non-Toxic,,,
CC(C)OC(=O)[C@H](C)N[P@](=O)(OCC1=C[C@@H](O)[C@H](n2cnc3c(N)ncnc32)O1)Oc1ccccc1,Toxic,,,,80%,25,"log(activity) [10]: 2.5; Activity ([1]; time 96 hrs): 100%; Activity [6]: Active; viability at 144 h, 1000 µM [11]: 70%; Activity [12]: Active; log(activity) ([4]; time 96 hrs): 4.8; Activity [13]: Toxic"
Cc1cn([C@@H]2OC(CO[P@@](=O)(N[C@@H](C)C(=O)OC(C)C)Oc3ccccc3)=C[C@H]2O)c(=O)[nH]c1=O,Non-Toxic,,inactive,,Non-Toxic,50,Activity ([1]; time 96.0 hrs): inactive
Nc1ncnc2c1ncn2[C@@H]1OC(CO)=C[C@H]1O,Toxic,Non-Toxic,,< 25%,,,"log(activity) [10]: 1.5; Activity [14]: Toxic; viability at 144 h, 1000 µM [11]: 70%; Activity [12]: Active; Activity [13]: Toxic"
O=c1[nH]cnc2c1ncn2[C@@H]1OC(CO)=C[C@H]1O,Non-Toxic,Non-Toxic,inactive,Non-Toxic,,,
CC(C)OC(=O)[C@H](C)N[P@](=O)(OCC1=C[C@@H](O)[C@H](n2cnc3c(=O)[nH]c(N)nc32)O1)Oc1ccccc1,Non-Toxic,Non-Toxic,inactive,Non-Toxic,,,Activity [6]: Active; log(activity) ([8]; time 96 hrs): 3.8
